Test results taken from ChEMBL document CHEMBL1150289, “Petiolins A-C, phloroglucinol derivatives from Hypericum pseudopetiolatum var. kiusianum” (Bioorg Med Chem, 2008).
Converted amounts (≈) assume the structure as drawn.

What was measured:
KB = test: Cytotoxicity against human KB cells; type: functional, cell-based
L1210 = test: Cytotoxicity against mouse L1210 cells; type: functional, cell-based
[1] = test system: Trichophyton mentagrophytes; test: Antifungal activity against Trichophyton mentagrophytes; type: functional

MIC [1] | SMILES | IC50 (KB) | IC50 (L1210)
 | CC(C)=CCCC1(C)C=CC2=C(O1)C(C)(C)C(=O)C(C(=O)C(C)C)=C2O (configuration not stated) [PETIOLIN A] | 4.8 µg/mL (≈ 13.4 µM) | 2.5 µg/mL (≈ 6.97 µM)
 | CCC(C)C(=O)C1=C(O)C2=C(OC(C)(CCC=C(C)C)C=C2)C(C)(C)C1=O (configuration not stated) [PETIOLIN B] | 9.6 µg/mL (≈ 25.8 µM) | > 10 µg/mL
33.3 µg/mL (≈ 88.4 µM) | CC(C)=CCC[C@@](C)(O)[C@@H]1CC2=C(O1)/C(=C(/O)C(C)C)C(=O)C(C)(C)C2=O [PETIOLIN C] | 4.9 µg/mL (≈ 13 µM) | 3.3 µg/mL (≈ 8.77 µM)
